Measurements: patent US9827189B2, “Stable parenteral DNJ compositions” (AMICUS THERAPEUTICS, INC., priority 2013, dated 2017)
Counter-ions that a name gives are not always drawn.

Assays:
[1] = system: rat whole blood; assay: Hemolytic potential in rat whole blood; type: cell-based, Sprague Dawley rat; details: 37 ° C. 30 minutes
Experimental: (§1) 1-DNJ-HCl was dissolved in sodium citrate buffer. 1-DNJ-HCl concentration was 30 mg/mL (resulting free 1-DNJ concentration was 25 mg/mL); sodium citrate buffer concentration was 50 mM at pH 5.0. 1-DNJ-HCl formulation was added to whole blood samples of male human, rat, and cynomolgus monkey. […]. Buffer served as a negative control, while Triton-X 100 (Lysing agent) served as a positive control. Additionally blood sample without any additions was used as a negative control. The samples were stored at 4° C. Blood samples were incubated at 37 ° C. for 30 minutes with the 1-DNJ-HCl formulation, after which the samples were centrifuged. The amount of hemoglobin in the supernatant from each centrifuged sample was measured using a commercially available hemoglobin assay kit (BioAssay Systems, QuantiChrom™ Hemoglobin Assay Kit) and the Tecan microplate reader.

[2] = system: human whole blood; assay: Hemolytic potential in human whole blood; type: cell-based; details: 37 ° C. 30 minutes
Experimental: as §1

[3] = Osmolality of 1-DNJ-HCl in sodium citrate buffer by freezing point; type: physicochemical
Experimental: The molallity of 1-deoxynojirimycin chloride (1-DNJ-HCl) was determined by freezing point depreciation. 1-deoxynojirimycin chloride concentration ranged from 30 mg/mL to 60 mg/mL. Sodium citrate concentration ranged from 20 to 50 mM.

[4] = 500 μL blood mixed with 500 μL sample (30 mg/mL AT2220 or 0.1% Triton X-100)
[5] = 500 μL blood mixed with 500 μL sample, 30 mg/mL AT2220 dilution 1, 0.1% Triton X-100 dilution 100

OC[C@H]1NC[C@H](O)[C@@H](O)[C@@H]1O [1-DNJ-HCl, 1-deoxynojirimycin hydrochloride]
% RBC lysis [1, 4]: −0.3% | Avg OD (n = 4) [1, 5]: 0.3535 | % RBC lysis [2, 4]: 0.0% | Avg OD (n = 4) [2, 5]: 0.0755 | Osmolality ([3]; 1-DNJ-HCl 30 mg/mL, Sodium Citrate Buffer 20 mM): 311 mOsm/kg | Osmolality ([3]; 1-DNJ-HCl 30 mg/mL, Sodium Citrate Buffer 25 mM): 327 mOsm/kg | Osmolality ([3]; 1-DNJ-HCl 30 mg/mL, Sodium Citrate Buffer 30 mM): 343 mOsm/kg | Osmolality ([3]; 1-DNJ-HCl 30 mg/mL, Sodium Citrate Buffer 35 mM): 358 mOsm/kg | Osmolality ([3]; 1-DNJ-HCl 30 mg/mL, Sodium Citrate Buffer 40 mM): 374 mOsm/kg | Osmolality ([3]; 1-DNJ-HCl 30 mg/mL, Sodium Citrate Buffer 45 mM): 389 mOsm/kg | Osmolality ([3]; 1-DNJ-HCl 35 mg/mL, Sodium Citrate Buffer 20 mM): 353 mOsm/kg | Osmolality ([3]; 1-DNJ-HCl 35 mg/mL, Sodium Citrate Buffer 25 mM): 369 mOsm/kg | Osmolality ([3]; 1-DNJ-HCl 35 mg/mL, Sodium Citrate Buffer 30 mM): 384 mOsm/kg | Osmolality ([3]; 1-DNJ-HCl 35 mg/mL, Sodium Citrate Buffer 35 mM): 400 mOsm/kg | Osmolality ([3]; 1-DNJ-HCl 35 mg/mL, Sodium Citrate Buffer 40 mM): 415 mOsm/kg | Osmolality ([3]; 1-DNJ-HCl 35 mg/mL, Sodium Citrate Buffer 45 mM): 431 mOsm/kg | Osmolality ([3]; 1-DNJ-HCl 35 mg/mL, Sodium Citrate Buffer 50 mM): 447 mOsm/kg | Osmolality ([3]; 1-DNJ-HCl 40 mg/mL, Sodium Citrate Buffer 20 mM): 394 mOsm/kg | Osmolality ([3]; 1-DNJ-HCl 40 mg/mL, Sodium Citrate Buffer 25 mM): 410 mOsm/kg | Osmolality ([3]; 1-DNJ-HCl 40 mg/mL, Sodium Citrate Buffer 30 mM): 426 mOsm/kg | Osmolality ([3]; 1-DNJ-HCl 40 mg/mL, Sodium Citrate Buffer 35 mM): 441 mOsm/kg | Osmolality ([3]; 1-DNJ-HCl 40 mg/mL, Sodium Citrate Buffer 40 mM): 457 mOsm/kg | Osmolality ([3]; 1-DNJ-HCl 40 mg/mL, Sodium Citrate Buffer 45 mM): 472 mOsm/kg | Osmolality ([3]; 1-DNJ-HCl 40 mg/mL, Sodium Citrate Buffer 50 mM): 488 mOsm/kg | Osmolality ([3]; 1-DNJ-HCl 45 mg/mL, Sodium Citrate Buffer 20 mM): 436 mOsm/kg | Osmolality ([3]; 1-DNJ-HCl 45 mg/mL, Sodium Citrate Buffer 25 mM): 452 mOsm/kg | Osmolality ([3]; 1-DNJ-HCl 45 mg/mL, Sodium Citrate Buffer 30 mM): 467 mOsm/kg | Osmolality ([3]; 1-DNJ-HCl 45 mg/mL, Sodium Citrate Buffer 35 mM): 483 mOsm/kg | Osmolality ([3]; 1-DNJ-HCl 45 mg/mL, Sodium Citrate Buffer 40 mM): 498 mOsm/kg | Osmolality ([3]; 1-DNJ-HCl 45 mg/mL, Sodium Citrate Buffer 45 mM): 514 mOsm/kg | Osmolality ([3]; 1-DNJ-HCl 45 mg/mL, Sodium Citrate Buffer 50 mM): 530 mOsm/kg | Osmolality ([3]; 1-DNJ-HCl 50 mg/mL, Sodium Citrate Buffer 20 mM): 477 mOsm/kg | Osmolality ([3]; 1-DNJ-HCl 50 mg/mL, Sodium Citrate Buffer 25 mM): 493 mOsm/kg | Osmolality ([3]; 1-DNJ-HCl 50 mg/mL, Sodium Citrate Buffer 30 mM): 509 mOsm/kg | Osmolality ([3]; 1-DNJ-HCl 50 mg/mL, Sodium Citrate Buffer 35 mM): 524 mOsm/kg | Osmolality ([3]; 1-DNJ-HCl 50 mg/mL, Sodium Citrate Buffer 40 mM): 540 mOsm/kg | Osmolality ([3]; 1-DNJ-HCl 50 mg/mL, Sodium Citrate Buffer 45 mM): 555 mOsm/kg | Osmolality ([3]; 1-DNJ-HCl 50 mg/mL, Sodium Citrate Buffer 50 mM): 571 mOsm/kg | Osmolality ([3]; 1-DNJ-HCl 55 mg/mL, Sodium Citrate Buffer 20 mM): 519 mOsm/kg | Osmolality ([3]; 1-DNJ-HCl 55 mg/mL, Sodium Citrate Buffer 25 mM): 535 mOsm/kg | Osmolality ([3]; 1-DNJ-HCl 55 mg/mL, Sodium Citrate Buffer 30 mM): 550 mOsm/kg | Osmolality ([3]; 1-DNJ-HCl 55 mg/mL, Sodium Citrate Buffer 35 mM): 566 mOsm/kg | Osmolality ([3]; 1-DNJ-HCl 55 mg/mL, Sodium Citrate Buffer 40 mM): 581 mOsm/kg | Osmolality ([3]; 1-DNJ-HCl 55 mg/mL, Sodium Citrate Buffer 45 mM): 597 mOsm/kg | Osmolality ([3]; 1-DNJ-HCl 55 mg/mL, Sodium Citrate Buffer 50 mM): 613 mOsm/kg | Osmolality ([3]; 1-DNJ-HCl 60 mg/mL, Sodium Citrate Buffer 20 mM): 560 mOsm/kg | Osmolality ([3]; 1-DNJ-HCl 60 mg/mL, Sodium Citrate Buffer 25 mM): 576 mOsm/kg | Osmolality ([3]; 1-DNJ-HCl 60 mg/mL, Sodium Citrate Buffer 30 mM): 592 mOsm/kg | Osmolality ([3]; 1-DNJ-HCl 60 mg/mL, Sodium Citrate Buffer 35 mM): 607 mOsm/kg | Osmolality ([3]; 1-DNJ-HCl 60 mg/mL, Sodium Citrate Buffer 40 mM): 623 mOsm/kg | Osmolality ([3]; 1-DNJ-HCl 60 mg/mL, Sodium Citrate Buffer 45 mM): 638 mOsm/kg | Osmolality ([3]; 1-DNJ-HCl 60 mg/mL, Sodium Citrate Buffer 50 mM): 654 mOsm/kg
